Measurements: PMC9555310, “Novel inhibitors and activity-based probes targeting serine proteases” (Frontiers in Chemistry, 2022)

Target: T1, plasmin (Homo sapiens, UniProt P00747)
T1 construct: purchased Sigma-Aldrich (supplement); R&D Systems; host or cells: human plasma
Experiment: Activity-based profiling of plasmin (SDS-PAGE, streptavidin-HRP western blot)
Assay type: binding
Settings: 50 μM, 30 min, 37°C
Method: Samples of recombinant protease (trypsin, plasmin, thrombin, chymotrypsin, or HNE, as indicated in the relevant figure legends) were treated with each of the newly synthesized compounds at a concentration of 50 μM, for 30 min, at 37°C. A control sample (no ABP) was prepared by treating the recombinant protease with solvent vehicle (DMF) only, used to prepare the stock solution of each ABP. Samples were also pre-treated (±90°C for 30 min) before being incubated with each putative ABP. With trypsin and thrombin, further samples were prepared where Z-Arg^P-(OPh)2 or NAP559, respectively, was added 30 min prior to the addition of the ABP under examination. All treated samples were then denatured with SDS containing reducing treatment buffer (10 min at 95°C), followed by resolution by SDS-PAGE and subjected to Western blotting. Resolved proteins were then transferred onto the nitrocellulose membrane and labeled with streptavidin-HRP. The ABP–protease complex was then visualized following treatment with Luminata Forte HRP substrate.
FIGURE 8 Activity Based Profiling of Trypsin-like serine proteases. (A) trypsin was treated (±) with NAP830, for 30 min, at 37°C (± pretreatment with Z-Arg^P-(OPh)2). (B) thrombin (1 […]) was pre-treated with various concentrations of NAP559 (30 min, at 37°C) followed by treatment (±) with NAP858 for 30 min, at 37°C. (C) Plasmin was treated in turn with QUBTL1, NAP962 and NAP830, (± pre-heat inactivation at 95°C, for 10 min) for 30 min, at 37°C. […]
Following transfer, the extra protein binding sites on the membrane were blocked by addition of 3% (w/v) BSA in TBST (20 mM Tris, 137 mM NaCl, 1% (v/v) Tween 20, pH 7.6) and agitated gently at room temperature for 30 minutes. The biotin-labelled proteases were then detected by addition of Streptavidin-HRP (Vector Laboratories) in 3% (w/v) BSA in TBST at a concentration of 1:20000, for 1 hour at room temperature. […]

T1 sequence (P00747 581-810 limits assumed): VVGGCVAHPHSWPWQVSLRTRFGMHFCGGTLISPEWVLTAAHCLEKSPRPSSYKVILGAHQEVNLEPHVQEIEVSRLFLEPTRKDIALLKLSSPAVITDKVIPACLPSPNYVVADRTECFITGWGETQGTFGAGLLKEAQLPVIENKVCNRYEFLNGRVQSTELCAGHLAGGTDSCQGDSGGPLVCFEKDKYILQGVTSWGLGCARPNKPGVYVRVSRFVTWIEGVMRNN
T1 sequence (P00747 97-580 partner limits assumed): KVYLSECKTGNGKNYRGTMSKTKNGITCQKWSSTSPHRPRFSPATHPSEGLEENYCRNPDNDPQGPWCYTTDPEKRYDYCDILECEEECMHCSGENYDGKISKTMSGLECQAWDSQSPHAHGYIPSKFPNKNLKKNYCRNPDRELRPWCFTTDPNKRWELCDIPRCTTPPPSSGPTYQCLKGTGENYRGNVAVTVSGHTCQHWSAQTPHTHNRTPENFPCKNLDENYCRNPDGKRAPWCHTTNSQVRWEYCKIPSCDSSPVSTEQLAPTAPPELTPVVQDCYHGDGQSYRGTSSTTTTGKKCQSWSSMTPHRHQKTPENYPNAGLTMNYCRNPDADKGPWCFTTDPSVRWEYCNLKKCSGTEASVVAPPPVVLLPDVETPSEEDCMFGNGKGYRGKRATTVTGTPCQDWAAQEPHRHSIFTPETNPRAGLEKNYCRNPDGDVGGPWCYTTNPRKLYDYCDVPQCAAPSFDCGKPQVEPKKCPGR

SMILES | labelling of plasmin by ABP (western blot)
NCCCCN(CC(=O)NCC(=O)NCC(=O)NCCCOCCOCCOCCCNC(=O)CCCCC1SCC2NC(=O)NC21)C(=O)ON1C(=O)CCC1=O (stereo not drawn) [NAP830, Succinimidoyl-CO-NLys-Gly-Gly-PEG-Biotin] | A band corresponding to the light (catalytic) chain of plasmin (26 kDa) was visible
CC(C)N(CC(=O)NCCCOCCOCCOCCCNC(=O)CCCCC1SCC2NC(=O)NC21)C(=O)CN(Cc1ccccc1)C(=O)CN(CCCCN)C(=O)ON1C(=O)CCC1=O (centres unmarked) [NAP962, Succinimidoyl-CO-NLys-NPhe-NVal-PEG-Biotin] | A band corresponding to the light (catalytic) chain of plasmin (26 kDa) was visible
